Like-named read-outs stand apart in the source and are kept apart here. Square brackets hold non-standard residues; d marks the D form. Peptide text beside a SMILES is read from it. dPhe(4-I) = N[C@H](Cc1ccc(I)cc1)C(=O)O; d2Nal = N[C@H](Cc1ccc2ccccc2c1)C(=O)O; Bta = N[C@@H](Cc1csc2ccccc12)C(=O)O; Tic = O=C(O)[C@@H]1Cc2ccccc2CN1; Nle = CCCC[C@H](N)C(=O)O
Columns and labels:
mMC3R [1] = target: T1, mMC3R (Mus musculus, UniProt P33033); settings: Schild analysis; for mMC3R Antagonist pA2 ± SEM: Table 1, pA2 = -Log(Ki), Full Agonist = full dose-response, No Activity = no shift in EC50
mMC3R [2] = target: T1, mMC3R; assay: 125I-NDP-MSH competitive binding assay at mMC3R; parameters: expressed in transfected cells; settings: for mMC3R (IC50) Fold Diff.: Table 3, vs Ac-His-DPhe-Arg-Trp-NH2, negative = more potent than control
Method: A typical experiment utilized a 12-well format. […] Pharm. Des.
The plates were incubated at 37° C. with 5% CO2 for 1 hour. Post incubation, the media was aspirated, each well was washed with 500 μL assay media, and cells were lysed with 500 μL of 0.1 M NaOH and 500 μL of 1% Triton x-100.
Following a 10-15 minute room temperature incubation, the cell lysate mixture was transferred to 12×75 mm polystyrene tubes and the radioactivity was quantified using a WIZARD^2 Automatic Gamma Counter (Perkin-Elmer). […] GraphPad, Inc), and dose-response curves in addition to the corresponding IC50 values were calculated by a non-linear regression method. Each reported value represents the mean and standard error of the mean (SEM) of, at least, two independent experiments each containing two experimental replicates.
Note each reported value represents the mean and standard error of the mean (SEM) of at least two independent experiments containing two experimental replicates.

mMC4R [3] = target: T2, mMC4R (Mus musculus, UniProt P56450); assay: AlphaScreen cAMP agonist assay at mMC4R; settings: for activation at 100 µM: read-out: mMC4R Agonist, percent of the NDP-MSH maximal positive control
mMC4R [4] = target: T2, mMC4R; assay: 125I-NDP-MSH competitive binding assay at mMC4R; settings: Table 3; vs Ac-His-DPhe-Arg-Trp-NH2; negative = more potent than control
mMC4R [5] = target: T2, mMC4R; settings: Schild analysis
mMC3R [6] = target: T1, mMC3R; assay: AlphaScreen cAMP agonist assay at mMC3R
mMC1R = mMC1R (Mus musculus, UniProt Q01727); assay: AlphaScreen cAMP agonist assay at mMC1R
mMC5R = mMC5R (Mus musculus, UniProt P41149); assay: AlphaScreen cAMP agonist assay at mMC5R
mMC3R [7] = target: T1, mMC3R; parameters: expressed in transfected cells; settings: Joseph et al. 2003; read-out: reported stimulation potency at the mMC3R; cited from earlier work
mMC4R [8] = target: T2, mMC4R; parameters: expressed in transfected cells; settings: Joseph et al. 2003; read-out: reported stimulation potency at the mMC4R; cited from earlier work

T2 sequence (P56450 whole entry): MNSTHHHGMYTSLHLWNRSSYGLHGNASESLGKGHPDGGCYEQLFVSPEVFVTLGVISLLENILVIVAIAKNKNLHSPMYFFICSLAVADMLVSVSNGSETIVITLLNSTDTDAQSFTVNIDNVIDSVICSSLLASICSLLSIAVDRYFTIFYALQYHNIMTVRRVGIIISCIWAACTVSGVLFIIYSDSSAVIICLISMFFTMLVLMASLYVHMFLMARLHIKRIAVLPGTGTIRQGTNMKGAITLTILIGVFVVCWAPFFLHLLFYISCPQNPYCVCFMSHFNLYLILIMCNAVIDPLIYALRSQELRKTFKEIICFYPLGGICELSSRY
T1 sequence (P33033 whole entry): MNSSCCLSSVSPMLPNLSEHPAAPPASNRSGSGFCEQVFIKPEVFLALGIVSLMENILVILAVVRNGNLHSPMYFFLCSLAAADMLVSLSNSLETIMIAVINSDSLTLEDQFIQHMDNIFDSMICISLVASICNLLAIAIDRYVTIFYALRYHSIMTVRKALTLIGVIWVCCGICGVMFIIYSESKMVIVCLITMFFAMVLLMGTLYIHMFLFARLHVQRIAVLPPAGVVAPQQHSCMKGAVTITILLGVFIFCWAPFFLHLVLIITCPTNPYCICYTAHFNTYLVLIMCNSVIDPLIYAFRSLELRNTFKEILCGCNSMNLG
Chain of mMC1R (Q01727 whole entry): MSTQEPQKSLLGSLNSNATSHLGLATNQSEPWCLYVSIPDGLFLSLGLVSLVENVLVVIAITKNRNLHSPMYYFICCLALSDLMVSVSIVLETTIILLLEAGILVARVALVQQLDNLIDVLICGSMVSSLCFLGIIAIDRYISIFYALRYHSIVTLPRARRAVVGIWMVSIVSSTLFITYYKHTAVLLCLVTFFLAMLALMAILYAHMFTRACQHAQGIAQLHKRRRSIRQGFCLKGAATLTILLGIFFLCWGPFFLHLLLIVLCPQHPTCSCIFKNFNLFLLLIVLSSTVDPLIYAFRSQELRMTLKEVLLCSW
Chain of mMC5R (P41149 whole entry): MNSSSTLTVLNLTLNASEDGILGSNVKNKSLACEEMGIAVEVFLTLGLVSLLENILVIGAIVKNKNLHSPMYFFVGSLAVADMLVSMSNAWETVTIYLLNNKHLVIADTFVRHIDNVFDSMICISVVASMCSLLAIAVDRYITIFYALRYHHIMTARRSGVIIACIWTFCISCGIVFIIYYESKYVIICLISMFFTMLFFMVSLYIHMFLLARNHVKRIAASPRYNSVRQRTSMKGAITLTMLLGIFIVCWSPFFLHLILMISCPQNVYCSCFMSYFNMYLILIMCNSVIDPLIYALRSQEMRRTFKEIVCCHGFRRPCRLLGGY

Molecule | mMC3R Antagonist pA2 ± SEM (mMC3R [1]) | mMC3R (IC50) Fold Diff. (mMC3R [2]) | activation at 100 µM (mMC4R [3]) | mMC4R (IC50) Fold Diff. (mMC4R [4]) | further results
CC(=O)N[C@@H](CCCNC(=N)N)C(=O)N[C@@H](CCCNC(=N)N)C(=O)N[C@H](Cc1ccc(I)cc1)C(=O)N[C@@H](Cc1csc2ccccc12)C(N)=O [SKY4-48-10, Ac-Arg-Arg-(pI)DPhe-3Bal-NH2] | Full Agonist | -52 | 24% | 1 | 
CC(=O)N[C@@H](Cc1c[nH]cn1)C(=O)N[C@@H](CCCNC(=N)N)C(=O)N[C@H](Cc1ccc(I)cc1)C(=O)N[C@@H](Cc1csc2ccccc12)C(N)=O [SKY4-48-11, Ac-His-Arg-(pI)DPhe-3Bal-NH2] (Ac-HR[dPhe(4-I)][Bta]-NH2) | Full Agonist | -15 | 47% | 2 | 
CC(=O)N[C@@H](Cc1ccccc1)C(=O)N[C@@H](CCCNC(=N)N)C(=O)N[C@H](Cc1ccc(I)cc1)C(=O)N[C@@H](Cc1csc2ccccc12)C(N)=O [SKY4-48-15, Ac-Phe-Arg-(pI)DPhe-3Bal-NH2] (Ac-FR[dPhe(4-I)][Bta]-NH2) | Full Agonist | -9 |  | 7 | fold improvement of binding IC50 at the mMC3R compared to SKY4-48-1 (mMC3R [2]): 9 fold
CC(=O)N[C@@H](Cc1ccccc1)C(=O)N[C@@H](CCCNC(=N)N)C(=O)N[C@H](Cc1ccc(I)cc1)C(=O)N1Cc2ccccc2C[C@H]1C(N)=O [SKY4-48-23, Ac-Phe-Arg-(pI)DPhe-Tic-NH2] (Ac-FR[dPhe(4-I)][Tic]-NH2) | Full Agonist | -20 |  | 1 | 
CC(=O)N[C@@H](CCCNC(=N)N)C(=O)N[C@@H](CCCNC(=N)N)C(=O)N[C@H](Cc1ccc(I)cc1)C(=O)N[C@@H](Cc1ccccc1)C(N)=O [SKY4-48-26, Ac-Arg-Arg-(pI)DPhe-Phe-NH2] | Full Agonist | -8 |  | 4 | 
CC(=O)N[C@@H](Cc1c[nH]cn1)C(=O)N[C@@H](CCCNC(=N)N)C(=O)N[C@H](Cc1ccccc1)C(=O)N[C@@H](Cc1c[nH]c2ccccc12)C(N)=O [SKY5-146-6, Ac-His-Arg-DPhe-Trp-NH2] (Ac-HR[dF]W-NH2) |  |  |  |  | mMC3R pA2 (mMC3R [1]; Table 5): Full Agonist; mMC4R pA2 (mMC4R [5]; Table 5): pA2 = No Activity; EC50 (mMC3R [6]): 21000 nM; agonist activity at the mMC3R in words (mMC3R [6]; up to 100 μM): micromolar agonists; EC50 (mMC4R [3]): > 100000 nM; agonist activity at the mMC4R in words (mMC4R [3]; up to 100 μM): no agonist activity; EC50 (mMC1R): 1300 nM; agonist / inverse agonist activity at the mMC1R in words (mMC1R; up to 100 μM): micromolar agonists; EC50 (mMC5R): 21000 nM; agonist activity at the mMC5R in words (mMC5R; up to 100 μM): micromolar agonists
CC(=O)N[C@H](Cc1ccc2ccccc2c1)C(=O)N[C@@H](CCCNC(=N)N)C(=O)N[C@H](Cc1ccc(I)cc1)C(=O)N1Cc2ccccc2C[C@H]1C(N)=O [SKY6-24-3, Ac-DNal(2′)-Arg-(pI)DPhe-Tic-NH2] (Ac-[d2Nal]R[dPhe(4-I)][Tic]-NH2) | Full Agonist | -120 | 32% | -3 | IC50 (mMC3R [2]): 440 nM; fold improvement of binding IC50 at the mMC3R compared to SKY4-48-1 (mMC3R [2]): 120 fold
Ac-3Bal-Arg-(pI)DPhe-DNal(2′)-NH2 (Ac-[Bta]R[dPhe(4-I)][d2Nal]-NH2) [SKY4-48-45] | No Activity |  |  |  | mMC4R Antagonist pA2 ± SEM (mMC4R [5]; Table 1, pA2 = -Log(Ki)): No Activity; mMC3R Agonist, percent of the NDP-MSH maximal positive control (mMC3R [6]; Table 1, @ 100 μM): 34% @ 100 μM; mMC4R Agonist, percent of the NDP-MSH maximal positive control (mMC4R [3]; Table 1, @ 100 μM): 38% @ 100 μM; mMC1R percent of the NDP-MSH maximal positive control (mMC1R; Table 2, @ 100 μM): 36% @ 100 μM; percent of the NDP-MSH maximal positive control, Table 2 (mMC5R; Table 2, @ 100 μM): 41% @ 100 μM
Ac-Ser-Tyr-Ser-Nle-Glu-His-Arg-Phe-Phe-Gly-Lys-Pro-Val-NH2 (Ac-SYS[Nle]EHRFFGKPV-NH2; SMILES CCCC[C@H](NC(=O)[C@H](CO)NC(=O)[C@H](Cc1ccc(O)cc1)NC(=O)[C@H](CO)NC(C)=O)C(=O)N[C@@H](CCC(=O)O)C(=O)N[C@@H](Cc1c[nH]cn1)C(=O)N[C@@H](CCCNC(=N)N)C(=O)N[C@@H](Cc1ccccc1)C(=O)N[C@@H](Cc1ccccc1)C(=O)NCC(=O)N[C@@H](CCCCN)C(=O)N1CCC[C@H]1C(=O)N[C@H](C(N)=O)C(C)C) [chimeric NDP-MSH/AGRP peptide] |  |  |  |  | EC50 (mMC3R [7]): 480 nM; EC50 (mMC4R [8]): 930 nM
